Test results published in BindingDB's records for patent US10941160 (Celgene Quanticel Research, 2021).

These molecules were tested against Bromodomain-containing protein 4 (Homo sapiens, UniProt O60885) (assay: In Vitro Enzyme Inhibition Assay).
Experimental: His-tagged BRD4 was cloned, expressed and purified to homogeneity. BRD4 binding and inhibition was assessed by monitoring the interaction of biotinylated H4-tetraacetyl peptide (AnaSpec, H4K5/8/12/16(Ac), biotin-labeled) with the target using the AlphaScreen technology ([…]). […] After 20 min incubation at room temp, Alpha streptavidin donor beads and Nickel Chelate acceptor beads were added to a final concentration of 5 μg/mL.

SMILES | IC50
Cn1cc(-c2cccc(S(O)(O)NC3CC3)c2)c2ccccc2c1=O [US10941160, Example 6] | in the range around 2750 nM
COc1ccc(-c2cn(C)c(=O)c3ccccc23)cc1S(N)(O)O [US10941160, Example 16] | in the range around 2750 nM
CCNS(O)(O)c1cccc(-c2cn(C)c(=O)c3cnccc23)c1 [US10941160, Example 53] | in the range around 2750 nM
COc1ccc(-c2cn(C)c(=O)c3cnccc23)cc1S(O)(O)NCc1ccccc1 [US10941160, Example 54] | > 5000 nM
Cn1cc(-c2cccc(S(N)(O)O)c2)c2ccncc2c1=O [US10941160, Example 55] | > 5000 nM
COc1ccc(-c2cn(C)c(=O)c3cnccc23)cc1S(N)(O)O [US10941160, Example 56] | > 5000 nM
CCNS(O)(O)c1cccc(-c2cn(C)c(=O)c3cc(F)ccc23)c1 [US10941160, Example 59] | in the range around 2750 nM
Cn1cc(-c2cccc(S(N)(O)O)c2)c2ccc(F)cc2c1=O [US10941160, Example 61] | < 500 nM
CCS(O)(O)c1ccc(O)c(-c2cn(C)c(=O)c3ccc(-c4cnn(C)c4)cc23)c1 [US10941160, Example 80] | < 500 nM
CCS(O)(O)c1ccc(OCC2CC2)c(-c2cn(C)c(=O)c3ccc(-c4cnn(C)c4)cc23)c1 [US10941160, Example 82] | < 500 nM
CCS(O)(O)c1cccc(-c2cn(C)c(=O)c(N)n2)c1 [US10941160, Example 105] | > 5000 nM
CCS(O)(O)c1cccc(-c2cc(N)c(=O)n(C)c2)c1 [US10941160, Example 108] | > 5000 nM
CCOc1ccc(S(N)(O)O)cc1-c1ccc(=O)n(C)c1 [US10941160, Example 117] | < 500 nM
Cn1cc(-c2cc(S(N)(O)O)ccc2Oc2ccc(F)cc2F)ccc1=O [US10941160, Example 118] | < 500 nM
CCS(O)(O)c1ccc(Oc2ccc(F)cc2F)c(-c2cc(F)c(=O)n(C)c2)c1 [US10941160, Example 121] | < 500 nM
CCS(O)(O)c1cccc(-c2cn(C)c(=O)c3ccncc23)c1 [US10941160, Example 126] | > 5000 nM
CCS(O)(O)c1cccc(-c2cn(C)c(=O)c3cncn23)c1 [US10941160, Example 133] | > 5000 nM
CCS(O)(O)c1ccc(OCC2CC2)c(-c2cn(C)c(=O)c3ccccc23)c1 [US10941160, Example 135] | < 500 nM
Cn1cc(-c2nc(N3CCC[SH]3(=O)O)ncc2OCC2CC2)c2ccccc2c1=O [US10941160, Example 156] | < 500 nM
CCS(O)(O)c1ccc(OCC2CC2)c(-c2cn(C)c(=O)c3ccc(F)cc23)c1 [US10941160, Example 174] | < 500 nM
CC#CCOc1ccc(S(O)(O)CC)cc1-c1cn(C)c(=O)c2ccccc12 [US10941160, Example 185] | < 500 nM
CCS(O)(O)c1ccc(NCC2CC2)c(-c2cn(C)c(=O)c3ccccc23)c1 [US10941160, Example 193] | < 500 nM
CCS(O)(O)c1ccc(NCC2CC2)c(-c2cn(C)c(=O)c3cc(F)ccc23)c1 [US10941160, Example 195] | < 500 nM

SMILES | IC50
CCS(O)(O)c1ccc(OCC2CC2)c(-c2cn(C)c(=O)c3ccccc23)n1 [US10941160, Example 206] | < 500 nM
COc1ccc(S(O)(O)CCO)cc1-c1cn(C)c(=O)c2ccc(-c3cnn(C)c3)cc12 [US10941160, Example 208] | < 500 nM
CCS(O)(O)c1ccc(OC)c(-c2cn(C)c(=O)c3ccc(-c4cn[nH]c4)cc23)c1 [US10941160, Example 210] | < 500 nM
CCS(O)(O)c1ccc(OCC2CC2)c(-c2cn(C)c(=O)c3c2CCCC3)c1 [US10941160, Example 219] | < 500 nM
CCCOc1ccc(S(O)(O)CC)cc1-c1cn(C)c(=O)c2cnc(-c3cnn(C)c3)nc12 [US10941160, Example 225] | < 500 nM
CCS(O)(O)c1ccc(OCC2CC2)c(-c2cn(C)c(=O)c3cnc(-c4cnn(C)c4)nc23)c1 [US10941160, Example 226] | < 500 nM
CCOc1ccc(S(O)(O)CC)cc1-c1cn(C)c(=O)c2cnc(-c3cnn(C)c3)nc12 [US10941160, Example 227] | < 500 nM
CCS(O)(O)c1ccc(OCC2CC2)c(-c2cn(C)c(=O)c3cncnc23)c1 [US10941160, Example 232] | < 500 nM
CCS(O)(O)c1ccc(OCC2CC2)c(-c2cc(C)c(=O)n(C3CC3)c2)c1 [US10941160, Example 251] | < 500 nM
CCS(O)(O)c1ccc(OCC2CC2)c(-c2cn(C)c(=O)c3occc23)c1 [US10941160, Example 252] | < 500 nM
CCS(O)(O)c1ccc(OCC2CC2)c(-c2cn(C)c(=O)c3sc(C(N)=O)cc23)c1 [US10941160, Example 265] | < 500 nM
CCS(O)(O)c1ccc(OCC2CC2)c(-c2cn(C)c(=O)c3oc(C)cc23)c1 [US10941160, Example 270] | < 500 nM
CCS(O)(O)c1ccc(OCC2CC2)c(-c2cc(Cl)c(=O)n(C)c2)c1 [US10941160, Example 272] | < 500 nM
CCS(O)(O)c1ccc(OCC2CC2)c(-c2cc(F)c(=O)n(C)c2)c1 [US10941160, Example 274] | < 500 nM
CCS(O)(O)c1ccc(OCC2CC2)c(-c2cc(C3CC3)c(=O)n(C)c2)c1 [US10941160, Example 280] | < 500 nM
C#Cc1cc(-c2cc(S(O)(O)CC)ccc2OCC2CC2)cn(C)c1=O [US10941160, Example 284] | < 500 nM
CCS(O)(O)c1ccc(OCC2CC2)c(-c2cc(OC(F)F)c(=O)n(C)c2)c1 [US10941160, Example 287] | < 500 nM
CCS(O)(O)c1ccc(OCC2CC2)c(-c2cc(OCC(F)(F)F)c(=O)n(C)c2)c1 [US10941160, Example 288] | < 500 nM
CCCCc1cnc(NS(O)(O)CC)nc1-c1cc(C)c(=O)n(C)c1 [US10941160, Example 310] | < 500 nM
CCS(O)(O)c1cnc(OCC2CC2)c(-c2cn(C)c(=O)c3ccccc23)c1 [US10941160, Example 322] | < 500 nM
CCS(O)(O)Nc1cc(Oc2ccc(F)cc2F)cc(-c2cc(C)c(=O)n(C)c2)c1 [US10941160, Example 342] | < 500 nM
CCCCc1cnc(NS(O)(O)CC)nc1-c1cc(OC)c(=O)n(C)c1 [US10941160, Example 362] | < 500 nM
CC(C)S(O)(O)c1ccc(OCC2CC2)c(-c2cn(C)c(=O)c3ccccc23)c1 [US10941160, Example 364] | < 500 nM

The remaining lines, values ahead:

IC50 | SMILES
< 500 nM | CCS(O)(O)c1ccc(OCC2CC2)c(-c2cn(C)c(=O)c3c2OCCN3)c1 [US10941160, Example 366]
< 500 nM | CCS(O)(O)c1ccc(OCC2CC2)c(-c2cn(C)c(=O)c3cncn23)c1 [US10941160, Example 368]
< 500 nM | CCS(O)(O)c1ccc(OC2CCC(F)(F)CC2)c(-c2cn(C)c(=O)c3cncn23)c1 [US10941160, Example 373]
< 500 nM | CCS(O)(O)c1ccc(OC2CCCC2)c(-c2cn(C)c(=O)c3cncn23)c1 [US10941160, Example 374]
< 500 nM | CCS(O)(O)c1ccc(NCC2CC2)c(-c2cn(C)c(=O)c3cncn23)c1 [US10941160, Example 375]
< 500 nM | CCS(O)(O)c1ccc(Oc2ccc(F)cc2F)c(-c2cn(C)c(=O)c3cncn23)c1 [US10941160, Example 376]
< 500 nM | CCS(O)(O)c1ccc(OCC2CC2)c(-c2cn(C)c(=O)c3ccoc23)c1 [US10941160, Example 378]
< 500 nM | CC#CCOc1ccc(S(O)(O)CC)cc1-c1cc(OC)c(=O)n(C)c1 [US10941160, Example 389]
< 500 nM | CCC#CCOc1ccc(S(O)(O)CC)cc1-c1cc(OC)c(=O)n(C)c1 [US10941160, Example 390]
< 500 nM | CCS(O)(O)c1ccc(OCC#CC2CC2)c(-c2cc(OC)c(=O)n(C)c2)c1 [US10941160, Example 391]
< 500 nM | COc1ccc2c(=O)n(C)cc(-c3cc(S(O)(O)C(C)C)ccc3OCC3CC3)c2c1 [US10941160, Example 393]
< 500 nM | Cc1cc(-c2cc(S(O)(O)C(C)C)ccc2OCC2CC2)cn(C)c1=O [US10941160, Example 394]
< 500 nM | CCS(O)(O)Nc1cc(OCc2ccccc2)cc(-c2cc(C)c(=O)n(C)c2)c1 [US10941160, Example 395]
< 500 nM | CCS(O)(O)c1ccc(Nc2ccc(F)cc2F)c(-c2cc(C)c(=O)n(C)c2)c1 [US10941160, Example 396]
< 500 nM | CCS(O)(O)c1ccc(NC2CCC(F)(F)CC2)c(-c2cc(C)c(=O)n(C)c2)c1 [US10941160, Example 397]
< 500 nM | CCS(O)(O)c1ccc(OCC2CC2)c(-c2cc(OC)c(=O)n(C)c2)c1 [US10941160, Example 399]
< 500 nM | CCS(O)(O)c1ccc(NCC2CC2)c(-c2cc(NC)c(=O)n(C)c2)c1 [US10941160, Example 408]
< 500 nM | CCS(O)(O)c1ccc(OCC2CC2)c(-c2cc(NC)c(=O)n(C)c2)c1 [US10941160, Example 409]
< 500 nM | CCS(O)(O)Cc1ccc(OCC(F)(F)F)c(-c2cc(C)c(=O)n(C)c2)c1 [US10941160, Example 411]
< 500 nM | CCS(O)(O)c1ccc(NCC2CC2)c(-c2cc(OC)c(=O)n(C)c2)c1 [US10941160, Example 414]
